According to ChEMBL document CHEMBL4041523, “Design, synthesis, and evaluation of asymmetric EF24 analogues as potential anti-cancer agents for lung cancer” (Eur J Med Chem, 2017):
Blank lines part the entries; values can stand above or below the compound they belong to. Calls of active or inactive are those of the source. The calls are words filed in the database; no cut-off is given here.

Legend:
[1] = tested on: A549; test: Cytotoxicity against human A549 cells measured after 72 hrs by MTT assay; format: functional, cell-based; details: for IC50: A549, 72 h
[2] = tested on: NCI-H1650; test: Cytotoxicity against human NCI-H1650 cells measured after 72 hrs by MTT assay; format: functional, cell-based; details: NCI-H1650, 72 h
[3] = tested on: Lewis lung carcinoma cell line; test: Cytotoxicity against mouse LLC cells measured after 72 hrs by MTT assay; format: functional, cell-based
[4] = tested on: A549; test: Induction of apoptosis in human A549 cells assessed as cell shrinkage measured after 72 hrs by Hoechst 33258 staining based fluorescent microscopic analysis; format: functional
[5] = tested on: A549; test: Induction of apoptosis in human A549 cells assessed as reduction in Bcl-2 expression measured after 24 hrs by Western blot analysis; format: functional, cell-based
[6] = tested on: A549; test: Anti-migratory activity against human A549 cells assessed as reduction in cell migration at 5 uM measured after 24 to 72 hrs by wound healing assay relative to control; format: functional; design: scale not given: the % may be the effect or the level left
[7] = tested on: A549; test: Induction of apoptosis in human A549 cells assessed as formation of apoptotic bodies measured after 72 hrs by Hoechst 33258 staining based fluorescent microscopic analysis; format: functional, cell-based
[8] = tested on: A549; test: Anti-migratory activity against human A549 cells assessed as reduction in cell migration measured after 24 to 72 hrs by wound healing assay; format: functional, cell-based
[9] = tested on: A549; test: Induction of apoptosis in human A549 cells assessed as ROS production at 10 uM measured after 12 hrs by DCFH-DA staining based flow cytometry (reference value: 7.19 %); format: functional
[10] = tested on: A549; test: Induction of apoptosis in human A549 cells assessed as increase in ROS production at 10 uM by DCFH-DA staining based flow cytometry; format: functional, cell-based; details: TDE = time-dependent effect
[11] = tested on: A549; test: Induction of apoptosis in human A549 cells assessed as chromatin condensation measured after 72 hrs by Hoechst 33258 staining based fluorescent microscopic analysis; format: functional, cell-based
[12] = tested on: A549; test: Anti-migratory activity against human A549 cells assessed as reduction in cell migration at 10 uM measured after 24 to 72 hrs by wound healing assay relative to control; format: functional; design: scale not given: the % may be the effect or the level left
[13] = biological target: Transcription factor p65 (Homo sapiens) (UniProt Q04206); test: Inhibition of TNF-alpha stimulated P65 nuclear translocation in human A549 cells at 10 uM pretreated for 2 hrs followed by TNF-alpha induction measured after 20 mins DAPI-staining based assay; format: cell-based
Transcription factor p65 (Homo sapiens), sequence (Q04206 whole entry): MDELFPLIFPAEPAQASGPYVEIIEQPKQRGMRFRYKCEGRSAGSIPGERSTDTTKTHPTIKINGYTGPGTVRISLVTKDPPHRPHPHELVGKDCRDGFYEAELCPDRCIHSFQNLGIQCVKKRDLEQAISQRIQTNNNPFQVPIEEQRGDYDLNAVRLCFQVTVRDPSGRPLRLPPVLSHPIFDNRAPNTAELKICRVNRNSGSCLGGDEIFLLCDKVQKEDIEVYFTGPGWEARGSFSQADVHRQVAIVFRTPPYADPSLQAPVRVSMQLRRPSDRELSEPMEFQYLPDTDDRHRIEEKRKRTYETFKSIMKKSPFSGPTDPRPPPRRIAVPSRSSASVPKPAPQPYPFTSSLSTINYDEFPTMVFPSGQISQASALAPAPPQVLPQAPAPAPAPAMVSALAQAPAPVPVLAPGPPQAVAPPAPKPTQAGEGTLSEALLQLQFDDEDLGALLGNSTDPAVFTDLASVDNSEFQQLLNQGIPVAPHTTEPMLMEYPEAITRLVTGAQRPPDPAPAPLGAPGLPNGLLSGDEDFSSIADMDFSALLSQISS

[14] = tested on: A549; test: Induction of apoptosis in human A549 cells assessed as increase in Bax expression at 10 uM in presence of ROS inhibitor NAC measured after 24 hrs Western blot analysis; format: functional, cell-based
[15] = tested on: A549; test: Anti-migratory activity against human A549 cells assessed as reduction in cell migration at 20 uM measured after 24 to 72 hrs by wound healing assay relative to control; format: functional; design: scale not given: the % may be the effect or the level left
[16] = tested on: A549; test: Induction of apoptosis in human A549 cells at 5 uM measured after 48 hrs by Annexin-V-FITC/propidium iodide staining based flow cytometry (reference value: 5.91 %); format: functional
[17] = tested on: A549; test: Induction of apoptosis in human A549 cells assessed as increase in Bax expression at 10 uM measured after 24 hrs Western blot analysis; format: functional, cell-based
[18] = tested on: A549; test: Antiproliferative activity against human A549 cells assessed as reduction in colony formation measured after 7 days by crystal violet staining based assay; format: functional, cell-based
[19] = biological target: T1, c-Jun N-terminal kinase, JNK (Homo sapiens) (UniProt P45983+P53779+P45984); test: Induction of ROS-induced JNK phosphorylation in human A549 cells at 10 uM measured after 24 hrs by Western blot analysis; format: cell-based
[20] = tested on: A549; test: Induction of apoptosis in human A549 cells at 20 uM measured after 48 hrs by Annexin-V-FITC/propidium iodide staining based flow cytometry (reference value: 5.91 %); format: functional
[21] = biological target: T2, NF-kappa-B inhibitor alpha (Homo sapiens) (UniProt P25963); test: Inhibition of TNF-alpha induced IkappaBalpha degradation in human A549 cells measured after 24 hrs by Western blot analysis; format: cell-based
T2 sequence (whole entry): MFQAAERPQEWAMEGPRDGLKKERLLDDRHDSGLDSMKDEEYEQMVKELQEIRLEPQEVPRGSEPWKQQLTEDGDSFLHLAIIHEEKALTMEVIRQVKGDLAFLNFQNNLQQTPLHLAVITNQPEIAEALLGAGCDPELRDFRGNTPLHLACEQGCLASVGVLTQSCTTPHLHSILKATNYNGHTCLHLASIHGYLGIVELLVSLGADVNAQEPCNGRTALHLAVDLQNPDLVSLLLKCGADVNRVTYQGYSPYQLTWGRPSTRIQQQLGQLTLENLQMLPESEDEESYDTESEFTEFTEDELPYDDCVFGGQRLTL

[22] = tested on: A549; test: Induction of apoptosis in human A549 cells assessed as increase in cleaved caspase-3 level at 20 uM measured after 24 hrs by Western blot analysis; format: functional, cell-based
[23] = biological target: T1, c-Jun N-terminal kinase, JNK (Homo sapiens); test: Induction of ROS-induced JNK phosphorylation in human A549 cells at 10 uM in presence of ROS inhibitor NAC measured after 24 hrs Western blot analysis; format: cell-based
[24] = tested on: A549; test: Induction of apoptosis in human A549 cells assessed as ROS production at 10 uM in presence of ROS inhibitor NAC measured after 12 hrs by DCFH-DA staining based flow cytometry (reference value: 7.19 %); format: functional
[25] = tested on: A549; test: Induction of apoptosis in human A549 cells assessed as reduction in Bcl-2 expression at 10 uM in presence of ROS inhibitor NAC measured after 24 hrs Western blot analysis; format: functional, cell-based
[26] = tested on: A549; test: Induction of apoptosis in human A549 cells assessed as increase in Bax expression measured after 24 hrs by Western blot analysis; format: functional, cell-based
[27] = tested on: A549; test: Induction of apoptosis in human A549 cells assessed as reduction in Bcl-2 expression at 10 uM measured after 24 hrs Western blot analysis; format: functional, cell-based
[28] = tested on: A549; test: Induction of apoptosis in human A549 cells measured after 48 hrs by Annexin-V-FITC/propidium iodide staining based flow cytometry; format: functional, cell-based
[29] = tested on: A549; test: Induction of apoptosis in human A549 cells at 10 uM measured after 48 hrs by Annexin-V-FITC/propidium iodide staining based flow cytometry (reference value: 5.91 %); format: functional

SMILES: COc1ccc(/C=C2\COC/C(=C\c3ccccc3F)C2=O)cc1O
- IC50 [1]: 13.8 µM
- IC50 [2]: 7.5 µM
- IC50 [3]: 9.6 µM

SMILES: O=C1/C(=C/c2ccccc2F)COC/C1=C\c1ccccc1Br
- IC50 [1]: 6.5 µM
- IC50 [2]: 6.5 µM
- IC50 [3]: 13.3 µM

SMILES: O=C1/C(=C/c2cccc(O)c2)COC/C1=C\c1ccccc1F
- IC50 [1]: 7.4 µM
- IC50 [2]: 5.7 µM
- IC50 [3]: 13.8 µM

SMILES: O=C1/C(=C/c2ccccc2)COC/C1=C\c1ccccc1F
- IC50 [1]: 17.6 µM
- IC50 [2]: 9.6 µM
- IC50 [3]: 16 µM

- inhibition [13]: Active
- Activity [19]: Active
- inhibition [21]: Dose-dependent effect
- Activity [23]: inactive
SMILES: COc1cc(/C=C2\COC/C(=C\c3ccccc3F)C2=O)cc(OC)c1OC
- Activity [4]: Dose-dependent effect
- Activity [1]: Dose-dependent effect
- IC50 [1]: 6.3 µM
- Activity [5]: Dose-dependent effect
- IC50 [2]: 6.8 µM
- Activity [6]: 82.2%
- Activity [7]: Dose-dependent effect
- Activity [8]: Dose-dependent effect
- Activity [9]: 9.81%
- Activity [10]: Tde
- Activity [11]: Dose-dependent effect
- Activity [12]: 68.7%
- Activity [14]: inactive
- Activity [15]: 37.9%
- Activity [16]: 6.55%
- Activity [17]: Active
- IC50 [3]: 6.1 µM
- Activity [18]: Dose-dependent effect
- Activity [20]: 20.4%
- Activity [22]: Active
- Activity [24]: 5.19%
- Activity [25]: inactive
- Activity [26]: Dose-dependent effect
- Activity [27]: Active
- Activity [28]: Dose-dependent effect
- Activity [29]: 9.26%

SMILES: COc1ccccc1/C=C1\COC/C(=C\c2ccccc2F)C1=O
- IC50 [1]: 5.9 to 11.7 µM
- IC50 [2]: 6.5 to 17.6 µM
- IC50 [3]: 15.4 to 17.7 µM

SMILES: COc1cc(/C=C/C(=O)CC(=O)/C=C/c2ccc(O)c(OC)c2)ccc1O [CURCUMIN]
- IC50 [1]: 27.8 µM
- IC50 [2]: 20.7 µM
- IC50 [3]: 24.7 µM

SMILES: O=C1/C(=C/c2ccccc2F)COC/C1=C\c1ccc(Cl)cc1Cl
- IC50 [1]: 7.9 µM
- IC50 [2]: 8.6 µM
- IC50 [3]: 29.4 µM

SMILES: Cc1ccc2nc(NCCN)c3ncc(C)n3c2c1 [BMS-345541]
- IC50 [1]: 5.6 µM
- IC50 [2]: 19.9 µM
- IC50 [3]: 4.8 µM
- Activity [20]: 16.57%

SMILES: O=C1/C(=C/c2ccccc2F)CNC/C1=C\c1ccccc1F
- IC50 [1]: 7.1 µM
- IC50 [2]: 14.6 µM
- IC50 [3]: 8.4 µM

SMILES: O=C1/C(=C/c2ccccc2F)COC/C1=C\c1ccccc1C(=O)O
- IC50 [1]: 27.9 µM
- IC50 [2]: 15.2 µM
- IC50 [3]: 17.2 µM

SMILES: COc1cc(/C=C2\COC/C(=C\c3ccccc3F)C2=O)ccc1O
- IC50 [1]: 21.4 µM
- IC50 [2]: 18.5 µM
- IC50 [3]: 13.1 µM

SMILES: COc1ccc(OC)c(/C=C2\COC/C(=C\c3ccccc3F)C2=O)c1
- IC50 [1]: 8.7 µM
- IC50 [2]: 6.8 µM
- IC50 [3]: 15.1 µM
